We go through 2 molecules from patent publication US20030153618A1, “Treatment and prevention of herpes simplex infections” (priority 1999, published 2003).

Values joined by “and” are separate entries in the source; they are usually repeats but may differ in a detail not shown here. Identical values can stand only once.

In the test the test system is HSV, Type II. Description: Direct plaque-forming unit (PFU) count in BSC cells in defined media with set lysine (or derivative):arginine ratio. The test is classed as cell-based. The settings on record: for Plaque Forming Unit Count, Average: average of experiments 1-6; for P.F.U. Count: average of three tests. On the procedure: Absorbed virons were absorbed in susceptible cells in chemically defined media and the number of plaques made were counted. (See Davis, B. D., et al., Microbiology, 2nd Ed., Harper & Row, 1973, Part V, and sources cited therein for procedural details and discussion of the plaque method.)
The cell line chosen was green monkey kidney cells (BSC) that have been passed greater than 41 times. […] The virons were added to a confluent lawn of BSC cells and allowed to absorb at 25° C. for one hour. The unabsorbed virons and the media were removed by washing three times in PBS. […] The control media contained a lysine/arginine ratio of 1:1. The plaques were counted when easily readable. Flasks are done in triplicate.

Consider `NCCCC[C@H](N)C(=O)O` [Lysine, lysine, reference compound], for which the “Plaque Forming Unit Count, Average” value came to 738 (Lysine:Arginine Ratio 1:1 (control media)) and 12 (Lysine:Arginine Ratio 500:1). The “Plaque Forming Unit Count” value (Lysine:Arginine Ratio 1:1 (control media), single experiment) was 814 and 594 and 631 and 621 and 936 and 781.

As to `NCCCCCC(N)C(=O)O` (centres unmarked) [drawing 16], the “P.F.U. Count” value (Compound Ratio to Arginine 10:1) is on record as under 5 and the “P.F.U. Count” value (Compound Ratio to Arginine 100:1) is on record as under 5.
